Legend:
hPAD4 enzyme [1] = target: T1, hPAD4 enzyme (Homo sapiens, UniProt Q9UM07); assay: RFMS Assay 1 (rapid-fire mass spectrum PAD4 inhibition assay, BAEE substrate); type: biochemical; conditions: 5 nM hPAD4 enzyme, 250 μM BAEE, 30 mins compound and enzyme preincubation at 37° C., 90 min enzyme/substrate reaction
Outline: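 Human PAD4 (5 nM) preincubated 30 min at 37 °C with compound (top 50 μM, 0.5% DMSO), then 250 μM BAEE for 90 min at 37 °C in pH 7.5 HEPES with 50 μM calcium, 5 μM TPEN, 1 mM DTT. Product derivatized with phenyl glyoxal; citrulline product quantified by RapidFire MS/MS MRM, normalized to internal standard.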

hPAD4 enzyme [2] = target: T1, hPAD4 enzyme; assay: RFMS Assay 2 (rapid-fire mass spectrum PAD4 inhibition assay, peptide substrate); type: biochemical; conditions: 35 nM recombinant human PAD4, substrate TSTGGRQGSHH, room temperature for 30 minutes; read-out: human PAD4 (hPAD4) IC50, RFMS Assay 2
Protocol: Stock compounds were dissolved and stored in 100% DMSO. Compound solutions were prepared via serial dilution at 3-fold intervals in DMSO with top compound concentration at […] in each assay. 0.25 μl of compound solution was transferred from the compound plate to the assay plate by using an acoustic dispenser. Final assay conditions: • Total reaction volume: 25 μl • Assay buffer: […] pH 7.4, 200 mM NaCl, 2 mM CaCl2, 5 mM DTT • 35 nM recombinant human PAD4 • 500 µM TSTGGRQGSHH (SEQ ID NO: 1) • 1.2% DMSO • Stop solution: 10% formic acid
Reaction mixtures were incubated at room temperature for 30 minutes. 10 μl each of the reaction mixtures was then mixed with 40 μl of 10% formic acid in a microtiter plate. The plate was frozen at −80° C. before shipping out on dry ice for RapidFire mass spectroscopy analysis.
Thawed samples were loaded onto the Rapid Fire 300 system (Agilent) wherein they were first sipped for 250 ms and then loaded onto a Agilent “C” (C18) cartridge using a mobile phase of water containing 0.09% formic acid/0.01% trifluoroacetic acid for 3000 ms desalting flowing at a rate of 1.5 ml/min. Once the samples were loaded and washed, a mobile phase of acetonitrile containing 0.09% formic acid/0.01% trifluoroacetic acid was used to elute the samples directly onto a Sciex API4000 triple quadrupole mass spectrometer for 3000 ms at a flow rate of 1.25 ml/min.
MRM transitions for substrate and product were monitored in positive ESI mode at m/z=562.3/969.7 and m/z=562.8/541.3 respectively. The dwell time for each transition was set at 100 ms, and the ESI voltage was used at 5500 with a source temperature of 650° C. Extracted ion peaks for each transition were integrated using the Rapid Fire Integrator software.

T1 sequence (Q9UM07 whole entry): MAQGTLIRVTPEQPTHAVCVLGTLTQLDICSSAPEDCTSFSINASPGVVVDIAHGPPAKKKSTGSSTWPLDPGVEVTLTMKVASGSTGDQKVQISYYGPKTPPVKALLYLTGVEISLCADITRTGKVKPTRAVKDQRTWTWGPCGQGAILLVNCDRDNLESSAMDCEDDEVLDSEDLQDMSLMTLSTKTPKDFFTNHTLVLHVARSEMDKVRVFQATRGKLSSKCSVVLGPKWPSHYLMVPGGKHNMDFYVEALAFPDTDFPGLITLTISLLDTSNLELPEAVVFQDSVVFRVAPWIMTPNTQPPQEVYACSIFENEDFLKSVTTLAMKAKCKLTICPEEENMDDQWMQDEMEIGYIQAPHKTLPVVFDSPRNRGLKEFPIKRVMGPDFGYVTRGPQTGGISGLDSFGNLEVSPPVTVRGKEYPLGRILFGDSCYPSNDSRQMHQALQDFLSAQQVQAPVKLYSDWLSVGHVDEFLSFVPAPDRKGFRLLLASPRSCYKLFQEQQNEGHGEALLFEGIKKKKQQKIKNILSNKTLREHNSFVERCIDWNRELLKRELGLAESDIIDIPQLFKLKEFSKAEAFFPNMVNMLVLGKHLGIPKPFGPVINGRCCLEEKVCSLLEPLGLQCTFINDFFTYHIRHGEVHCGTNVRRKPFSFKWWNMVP

Structure (SMILES)	IC50 (hPAD4 enzyme [1])	IC50 (hPAD4 enzyme [2])
CC(Cc1cnco1)Oc1cc(F)cc2cc(-c3nc4cc5c(nc4n3C)CCN(C[C@H](N)CF)C5=O)n(CC3CC3)c12 (single isomer, unassigned) [Example 65a]	≤ 10 nM	101 to 500 nM
COc1cccc2cc(-c3nc4cc5c(nc4n3C)CCN(C[C@H](N)CF)C5=O)n(CC3CC3)c12 [Example 1, (S)-7-(2-amino-3-fluoropropyl)-2-(1-(cyclopropylmethyl)-7-methoxy-1H-indol-2-yl)-3-methyl-3,5,6,7-tetrahydro-8H-imidazo[4,5-b][1,6]naphthyridin-8-one]	101 to 500 nM	501 to 1000 nM
COCCn1c(-c2nc3cc4c(nc3n2C)CCN(C[C@H](N)CF)C4=O)cc2cccc(OC)c21 [Example 2, (S)-7-(2-amino-3-fluoropropyl)-2-(7-methoxy-1-(2-methoxyethyl)-1H-indol-2-yl)-3-methyl-3,5,6,7-tetrahydro-8H-imidazo[4,5-b][1,6]naphthyridin-8-one]	> 1000 nM	> 1000 nM
COc1cccc2cc(-c3nc4cc5c(nc4n3C)CCN(C[C@H](N)CF)C5=O)n(Cc3ccno3)c12 [Example 7, (S)-7-(2-amino-3-fluoropropyl)-2-(1-(isoxazol-5-ylmethyl)-7-methoxy-1H-indol-2-yl)-3-methyl-3,5,6,7-tetrahydro-8H-imidazo[4,5-b][1,6]naphthyridin-8-one]	11 to 100 nM	101 to 500 nM
COc1cccc2cc(-c3nc4cc5c(nc4n3C)CCN(C[C@H](N)CF)C5=O)n(Cc3ncco3)c12 [Example 8, (S)-7-(2-amino-3-fluoropropyl)-2-(7-methoxy-1-(oxazol-2-ylmethyl)-1H-indol-2-yl)-3-methyl-3,5,6,7-tetrahydro-8H-imidazo[4,5-b][1,6]naphthyridin-8-one]	501 to 1000 nM	501 to 1000 nM
COc1cccc2cc(-c3nc4cc5c(nc4n3C)CCN(C[C@H](N)CF)C5=O)n(Cc3ncc(C)o3)c12 [Example 11, (S)-7-(2-amino-3-fluoropropyl)-2-(7-methoxy-1-((5-methyloxazol-2-yl)methyl)-1H-indol-2-yl)-3-methyl-3,5,6,7-tetrahydro-8H-imidazo[4,5-b][1,6]naphthyridin-8-one]	101 to 500 nM	101 to 500 nM
COc1cccc2cc(-c3nc4cc5c(nc4n3C)CCN(C[C@H](N)CF)C5=O)n(Cc3cc(C)no3)c12 [Example 12, (S)-7-(2-amino-3-fluoropropyl)-2-(7-methoxy-1-((3-methylisoxazol-5-yl)methyl)-1H-indol-2-yl)-3-methyl-3,5,6,7-tetrahydro-8H-imidazo[4,5-b][1,6]naphthyridin-8-one]	101 to 500 nM	101 to 500 nM
COc1cccc2cc(-c3nc4cc5c(nc4n3C)CCN(C[C@H](N)CF)C5=O)n(Cc3nc(C)cs3)c12 [Example 14, (S)-7-(2-amino-3-fluoropropyl)-2-(7-methoxy-1-((4-methylthiazol-2-yl)methyl)-1H-indol-2-yl)-3-methyl-3,5,6,7-tetrahydro-8H-imidazo[4,5-b][1,6]naphthyridin-8-one]	11 to 100 nM	501 to 1000 nM
COc1cccc2cc(-c3nc4cc5c(nc4n3C)CCN(C[C@H](N)CF)C5=O)n(CC3(F)CC3)c12 [Example 15, (S)-7-(2-amino-3-fluoropropyl)-2-(1-((1-fluorocyclopropyl)methyl)-7-methoxy-1H-indol-2-yl)-3-methyl-3,5,6,7-tetrahydro-8H-imidazo[4,5-b][1,6]naphthyridin-8-one]	11 to 100 nM	101 to 500 nM
COc1cccc2cc(-c3nc4cc5c(nc4n3C)CCN(C[C@H](N)CF)C5=O)n(CC3OCCO3)c12 [Example 16, (S)-2-(1-((1,3-dioxolan-2-yl)methyl)-7-methoxy-1H-indol-2-yl)-7-(2-amino-3-fluoropropyl)-3-methyl-3,5,6,7-tetrahydro-8H-imidazo[4,5-b][1,6]naphthyridin-8-one]	101 to 500 nM	101 to 500 nM
Cn1c(-c2cc3cccnc3n2CC2CC2)nc2cc3c(nc21)CCN(C[C@H](N)CF)C3=O [Example 19, (S)-7-(2-amino-3-fluoropropyl)-2-(1-(cyclopropylmethyl)-1H-pyrrolo[2,3-b]pyridin-2-yl)-3-methyl-3,5,6,7-tetrahydro-8H-imidazo[4,5-b][1,6]naphthyridin-8-one]	501 to 1000 nM	> 1000 nM
Cn1c(-c2cc3ccccc3n2CC2CC2)nc2cc3c(nc21)CCN(C[C@H](N)CF)C3=O [Example 20, (S)-7-(2-amino-3-fluoropropyl)-2-(1-(cyclopropylmethyl)-1H-indol-2-yl)-3-methyl-3,5,6,7-tetrahydro-8H-imidazo[4,5-b][1,6]naphthyridin-8-one]	> 1000 nM	501 to 1000 nM
COc1cc(F)cc2cc(-c3nc4cc5c(nc4n3C)CCN(C[C@H](N)CF)C5=O)n(Cc3ccno3)c12 [Example 22, (S)-7-(2-amino-3-fluoropropyl)-2-(5-fluoro-1-(isoxazol-5-ylmethyl)-7-methoxy-1H-indol-2-yl)-3-methyl-3,5,6,7-tetrahydro-8H-imidazo[4,5-b][1,6]naphthyridin-8-one]	101 to 500 nM	101 to 500 nM
COc1c(F)ccc2cc(-c3nc4cc5c(nc4n3C)CCN(C[C@H](N)CF)C5=O)n(Cc3ccno3)c12 [Example 23, (S)-7-(2-amino-3-fluoropropyl)-2-(6-fluoro-1-(isoxazol-5-ylmethyl)-7-methoxy-1H-indol-2-yl)-3-methyl-3,5,6,7-tetrahydro-8H-imidazo[4,5-b][1,6]naphthyridin-8-one]	11 to 100 nM	501 to 1000 nM
C[C@@H](N)CN1CCc2nc3c(cc2C1=O)nc(-c1cc2ccccc2n1CC1CC1)n3C [Example 24, (R)-7-(2-aminopropyl)-2-(1-(cyclopropylmethyl)-1H-indol-2-yl)-3-methyl-3,5,6,7-tetrahydro-8H-imidazo[4,5-b][1,6]naphthyridin-8-one]	11 to 100 nM	501 to 1000 nM
COc1cccc2cc(-c3nc4cc5c(nc4n3C)CCN(C[C@H]3COCCN3)C5=O)n(CC3(F)CC3)c12 [Example 26, (S)-2-(1-((1-fluorocyclopropyl)methyl)-7-methoxy-1H-indol-2-yl)-3-methyl-7-(morpholin-3-ylmethyl)-3,5,6,7-tetrahydro-8H-imidazo[4,5-b][1,6]naphthyridin-8-one]	101 to 500 nM	101 to 500 nM
Cn1c(-c2cc3cccc(OC[C@@H]4CCC(=O)NC4)c3n2CC2CC2)nc2cc3c(nc21)CCN(C[C@H](N)CF)C3=O [Example 37, 7-((S)-2-amino-3-fluoropropyl)-2-(1-(cyclopropylmethyl)-7-(((R)-6-oxopiperidin-3-yl)methoxy)-1H-indol-2-yl)-3-methyl-3,5,6,7-tetrahydro-8H-imidazo[4,5-b][1,6]naphthyridin-8-one]		501 to 1000 nM
Cn1c(-c2cc3cccc(OC[C@H]4CNC(=O)C4)c3n2CC2CC2)nc2cc3c(nc21)CCN(C[C@H](N)CF)C3=O [Example 60, 7-((S)-2-amino-3-fluoropropyl)-2-(1-(cyclopropylmethyl)-7-(((R)-5-oxopyrrolidin-3-yl)methoxy)-1H-indol-2-yl)-3-methyl-3,5,6,7-tetrahydro-8H-imidazo[4,5-b][1,6]naphthyridin-8-one]		101 to 500 nM

Other lines, results leading:

IC50 (hPAD4 enzyme [1])	IC50 (hPAD4 enzyme [2])	Structure (SMILES)
11 to 100 nM	11 to 100 nM	CC(Oc1cccc2cc(-c3nc4cc5c(nc4n3C)CCN(C[C@H](N)CF)C5=O)n(CC3CC3)c12)c1cc[nH]n1 (single isomer, unassigned) [Example 49a]
101 to 500 nM	101 to 500 nM	CC(Oc1cccc2cc(-c3nc4cc5c(nc4n3C)CCN(C[C@H](N)CF)C5=O)n(CC3CC3)c12)c1cc[nH]n1 (single isomer, unassigned) [Example 49b]
≤ 10 nM	11 to 100 nM	Cn1c(-c2cc3cccc(OC(F)Cn4ccnc4)c3n2CC2CC2)nc2cc3c(nc21)CCN(C[C@H](N)CF)C3=O (single isomer, unassigned) [Example 74a]
≤ 10 nM	11 to 100 nM	Cn1c(-c2cc3cccc(OC(F)Cn4ccnc4)c3n2CC2CC2)nc2cc3c(nc21)CCN(C[C@H](N)CF)C3=O (single isomer, unassigned) [Example 74b]
≤ 10 nM	11 to 100 nM	Cn1c(-c2cc3cccc(OC(F)Cn4cncc4F)c3n2CC2CC2)nc2cc3c(nc21)CCN(C[C@H](N)CF)C3=O (single isomer, unassigned) [Example 75a]
≤ 10 nM	11 to 100 nM	Cn1c(-c2cc3cccc(OC(F)Cn4cncc4F)c3n2CC2CC2)nc2cc3c(nc21)CCN(C[C@H](N)CF)C3=O (single isomer, unassigned) [Example 75b]
